The assay deals with T1, ΔF508-CFTR (Homo sapiens, UniProt P13569, DEL508-508).
T1 construct: expressed in transfected cells
The assay can be described thus: Membrane potential optical (FRET/VIPR) assay, identification of potentiator compounds. In kind it is cell-based. To be noted: Table 3, assay not given; for % Activity: relative efficacy. In short, it runs like this: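 NIH3T3 mouse fibroblasts stably expressing ΔF508-CFTR, temperature-corrected 24 h at 27° C., read on VIPR by FRET between CC2-DMPE and DiSBAC2(3). Potentiators identified in a double-addition format, first adding chloride-free (gluconate) medium with or without compound.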

This is an account of results in patent US8614327B2 (Vertex Pharmaceuticals Incorporated, priority 2004, dated 2013).

SMILES strings stand for the structures.

T1 sequence (P13569 with tags, fused parts or gaps DEL508-508): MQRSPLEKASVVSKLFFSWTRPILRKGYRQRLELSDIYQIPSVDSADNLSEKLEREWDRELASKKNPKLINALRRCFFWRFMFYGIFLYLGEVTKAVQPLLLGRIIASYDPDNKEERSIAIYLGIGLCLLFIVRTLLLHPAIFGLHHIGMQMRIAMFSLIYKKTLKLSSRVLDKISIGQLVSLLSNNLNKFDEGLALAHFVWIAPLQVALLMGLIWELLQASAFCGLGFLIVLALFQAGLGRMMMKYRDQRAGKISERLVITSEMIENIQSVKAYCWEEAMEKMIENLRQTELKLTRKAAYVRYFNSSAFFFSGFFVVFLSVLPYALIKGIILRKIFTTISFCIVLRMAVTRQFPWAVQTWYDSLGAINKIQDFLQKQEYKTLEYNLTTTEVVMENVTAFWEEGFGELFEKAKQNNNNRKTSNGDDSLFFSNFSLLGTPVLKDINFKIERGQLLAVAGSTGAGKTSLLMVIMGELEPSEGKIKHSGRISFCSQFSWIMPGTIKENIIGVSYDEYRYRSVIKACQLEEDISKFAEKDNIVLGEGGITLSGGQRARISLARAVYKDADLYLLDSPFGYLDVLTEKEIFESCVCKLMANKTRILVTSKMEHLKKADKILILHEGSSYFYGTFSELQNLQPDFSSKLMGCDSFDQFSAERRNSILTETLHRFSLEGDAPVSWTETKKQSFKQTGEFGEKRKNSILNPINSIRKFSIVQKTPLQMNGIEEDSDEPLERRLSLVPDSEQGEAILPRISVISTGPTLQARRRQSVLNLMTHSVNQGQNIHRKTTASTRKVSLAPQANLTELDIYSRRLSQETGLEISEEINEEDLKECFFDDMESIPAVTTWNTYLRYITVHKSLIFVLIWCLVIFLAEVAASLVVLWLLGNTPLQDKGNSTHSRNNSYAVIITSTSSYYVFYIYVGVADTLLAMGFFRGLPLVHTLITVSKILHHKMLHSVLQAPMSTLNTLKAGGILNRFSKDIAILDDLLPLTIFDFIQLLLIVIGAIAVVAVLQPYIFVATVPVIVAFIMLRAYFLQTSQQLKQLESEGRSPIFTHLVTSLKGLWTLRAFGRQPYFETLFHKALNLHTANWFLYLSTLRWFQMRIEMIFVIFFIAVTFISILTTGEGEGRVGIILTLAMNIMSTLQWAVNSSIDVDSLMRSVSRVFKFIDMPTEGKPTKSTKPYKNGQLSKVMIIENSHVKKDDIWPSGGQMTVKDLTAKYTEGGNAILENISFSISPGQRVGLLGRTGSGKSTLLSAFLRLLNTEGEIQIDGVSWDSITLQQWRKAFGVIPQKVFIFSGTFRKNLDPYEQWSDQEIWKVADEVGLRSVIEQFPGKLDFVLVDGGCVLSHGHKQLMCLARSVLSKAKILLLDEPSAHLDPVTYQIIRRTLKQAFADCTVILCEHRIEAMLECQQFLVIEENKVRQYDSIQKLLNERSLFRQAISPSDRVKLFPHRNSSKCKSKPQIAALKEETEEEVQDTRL

Regarding `CC1CCN(c2ccccc2NC(=O)c2c[nH]c3ccccc3c2=O)CC1` [Compound 372, N-[2-(4-methyl-1-piperidyl)phenyl]-4-oxo-1H-quinoline-3-carboxamide], the EC50 is less than 10 µM and the “% Activity” value was “++ (between 25% to 100%)”.
Turning to `CCc1c[nH]c2cc(NC(=O)c3c[nH]c4ccccc4c3=O)ccc12` [Compound 383, N-(3-ethyl-1H-indol-6-yl)-4-oxo-1H-quinoline-3-carboxamide], the EC50 is less than 10 µM and the “% Activity” value was “++ (between 25% to 100%)”.
With `O=C(Nc1ccc(N2CCN(CCO)CC2)cc1C(F)(F)F)c1c[nH]c2ccccc2c1=O` [Compound 673, N-[4-[4-(2-hydroxyethyl)piperazin-1-yl]-2-(trifluoromethyl)phenyl]-4-oxo-1H-quinoline-3-carboxamide], the EC50 was less than 10 µM and the “% Activity” value was “++ (between 25% to 100%)”.
In the same order, the values of `Cc1nc2cc(NC(=O)c3c[nH]c4ccccc4c3=O)ccc2s1` [Compound 44, N-(2-methylbenzothiazol-5-yl)-4-oxo-1H-quinoline-3-carboxamide] are 10 to 25 µM and “++ (between 25% to 100%)”.
`O=C(Nc1ccc(N2CCCC2)cc1C(F)(F)F)c1c[nH]c2ccccc2c1=O` [Compound 658, 4-oxo-N-[4-pyrrolidin-1-yl-2-(trifluoromethyl)phenyl]-1H-quinoline-3-carboxamide]: the EC50 was less than 10 µM and the “% Activity” value was “++ (between 25% to 100%)”.
Turning to `CC(C)(C)c1cc(C(C)(C)C)c(NC(=O)c2c[nH]c3ccc(Cl)cc3c2=O)cc1O` [Compound 623, 6-chloro-N-(5-hydroxy-2,4-ditert-butyl-phenyl)-4-oxo-1H-quinoline-3-carboxamide], the EC50 was less than 10 µM and the “% Activity” value is listed as “++ (between 25% to 100%)”.
For `CCOC(=O)Nc1cc(NC(=O)c2c[nH]c3ccccc3c2=O)ccc1C(C)C` [Compound 225, [2-isopropyl-5-[(4-oxo-1H-quinolin-3-yl)carbonylamino]phenyl]aminoformic acid ethyl ester], the 50% effective concentration (EC50) was less than 10 µM and the “% Activity” value is given as “++ (between 25% to 100%)”.
As for `Cn1c(=O)oc2ccc(NC(=O)c3c[nH]c4ccccc4c3=O)cc21` [Compound 474, N-(3-methyl-2-oxo-3H-benzooxazol-5-yl)-4-oxo-1H-quinoline-3-carboxamide], the EC50 was in the range of 25 to 60 µM and the “% Activity” value is listed as “+ (<25%)”.
With `O=C(Nc1ccccc1)c1c[nH]c2ccccc2c1=O` [Compound 215, 4-Oxo-N-phenyl-1H-quinoline-3-carboxamide], the EC50 was less than 10 µM and the “% Activity” value is recorded as “++ (between 25% to 100%)”.
For the molecule `CC(C)(C)c1cc(C(C)(C)C)c(NC(=O)c2c[nH]c3cc(OC(F)(F)F)ccc3c2=O)cc1O` [Compound 694, N-(5-hydroxy-2,4-ditert-butyl-phenyl)-4-oxo-7-(trifluoromethoxy)-1H-quinoline-3-carboxamide], the EC50 is less than 10 µM and the “% Activity” value is “++ (between 25% to 100%)”.
As to `O=C(Nc1cc(N2CCCC2)cc(C(F)(F)F)c1)c1c[nH]c2ccccc2c1=O` [Compound 593, 4-oxo-N-[3-pyrrolidin-1-yl-5-(trifluoromethyl)phenyl]-1H-quinoline-3-carboxamide], the EC50 is less than 10 µM and the “% Activity” value is reported as “++ (between 25% to 100%)”.
On the same counts, the results for `O=C(Nc1ccccc1-c1cccc(C(F)(F)F)c1)c1c[nH]c2ccccc2c1=O` [Compound 278, 4-oxo-N-[2-[3-(trifluoromethyl)phenyl]phenyl]-1H-quinoline-3-carboxamide] are less than 10 µM and “++ (between 25% to 100%)”.
With `O=C(Nc1ccccc1-c1ccc2[nH]ccc2c1)c1c[nH]c2ccccc2c1=O` [Compound 118, N-[2-(1H-indol-5-yl)phenyl]-4-oxo-1H-quinoline-3-carboxamide], the “% Activity” value is recorded as “++ (between 25% to 100%)”.
`O=C(Nc1cc(O)c(C(F)(F)F)cc1F)c1c[nH]c2ccccc2c1=O` [Compound 501, N-[2-fluoro-5-hydroxy-4-(trifluoromethyl)phenyl]-4-oxo-1H-quinoline-3-carboxamide]: the concentration giving a half-maximal response (EC50) was less than 10 µM and the “% Activity” value was “++ (between 25% to 100%)”.
Regarding `C[C@H]1CCCN1c1ccc(NC(=O)c2c[nH]c3cccc(C(F)(F)F)c3c2=O)c(C(F)(F)F)c1` [Compound 669, (S)-N-(4-(2-methylpyrrolidin-1-yl)-2-(trifluoromethyl)phenyl)-4-oxo-5-(trifluoromethyl)-1,4-dihydroquinoline-3-carboxamide], the EC50 is less than 10 µM and the “% Activity” value is “++ (between 25% to 100%)”.
On the same counts, the results for `CC1(C)CCCN(c2ccc(NC(=O)c3c[nH]c4ccccc4c3=O)c(C(F)(F)F)c2)C1` [Compound 612, N-[4-(3,3-dimethyl-1-piperidyl)-2-(trifluoromethyl)phenyl]-4-oxo-1H-quinoline-3-carboxamide] are less than 10 µM and “++ (between 25% to 100%)”.
For `CC(C)(C)c1cc(F)c(NC(=O)c2c[nH]c3cc(F)c(F)cc3c2=O)cc1O` [Compound 486, 6,7-difluoro-N-(2-fluoro-5-hydroxy-4-tert-butyl-phenyl)-4-oxo-1H-quinoline-3-carboxamide], the concentration for a half-maximal effect (EC50) was less than 10 µM and the “% Activity” value was “++ (between 25% to 100%)”.
Take `Cc1cccc2c(=O)c(C(=O)Nc3cc(O)c(C(C)(C)C)cc3C(C)(C)C)c[nH]c12` [Compound 621, N-(5-hydroxy-2,4-ditert-butyl-phenyl)-8-methyl-4-oxo-1H-quinoline-3-carboxamide]: the EC50 is less than 10 µM and the “% Activity” value is “+ (<25%)”.
For `CC(CO)(CO)c1ccc(NC(=O)c2c[nH]c3cccc(O)c3c2=O)cc1` [Compound 493, 5-hydroxy-N-[4-[2-hydroxy-1-(hydroxymethyl)-1-methyl-ethyl]phenyl]-4-oxo-1H-quinoline-3-carboxamide], the EC50 is less than 10 µM and the “% Activity” value is listed as “++ (between 25% to 100%)”.
Regarding `CC(C)(C)c1ccc(NC(=O)c2c[nH]c3ccccc3c2=O)cc1N` [Compound 271, N-(3-amino-4-tert-butyl-phenyl)-4-oxo-1H-quinoline-3-carboxamide], the EC50 is less than 10 µM and the “% Activity” value was “++ (between 25% to 100%)”.
With `CCc1cccc(CC)c1NC(=O)c1c[nH]c2ccccc2c1=O` [Compound 325, N-(2,6-diethylphenyl)-4-oxo-1H-quinoline-3-carboxamide], the EC50 is less than 10 µM and the “% Activity” value is reported as “++ (between 25% to 100%)”.
For `COc1ccc(C(C)(C)C)cc1NC(=O)c1c[nH]c2ccccc2c1=O` [Compound 211, N-(2-methoxy-5-tert-butyl-phenyl)-4-oxo-1H-quinoline-3-carboxamide], the half-maximal effective concentration (EC50) is less than 10 µM and the “% Activity” value is listed as “++ (between 25% to 100%)”.
Turning to `CCOC(=O)c1cc(NC(=O)c2c[nH]c3ccccc3c2=O)cc2[nH]ccc12` [Compound 145, 6-[(4-oxo-1H-quinolin-3-yl)carbonylamino]-1H-indole-4-carboxylic acid ethyl ester], the “% Activity” value was “++ (between 25% to 100%)”.
On to `Cc1cc(NC(=O)c2c[nH]c3ccccc3c2=O)ccc1F` [Compound 257, N-(4-fluoro-3-methyl-phenyl)-4-oxo-1H-quinoline-3-carboxamide], for which the EC50 is less than 10 µM and the “% Activity” value is “++ (between 25% to 100%)”.
Consider `CC(C)(C)c1ccc(O)cc1NC(=O)c1c[nH]c2ccc(F)cc2c1=O` [Compound 665, 6-fluoro-N-(5-hydroxy-2-tert-butyl-phenyl)-4-oxo-1H-quinoline-3-carboxamide], for which the EC50 was less than 10 µM and the “% Activity” value is on record as “++ (between 25% to 100%)”.
On the same counts, the results for `C#Cc1ccc(NC(=O)c2c[nH]c3ccccc3c2=O)cc1` [Compound 332, N-(4-ethynylphenyl)-4-oxo-1H-quinoline-3-carboxamide] are less than 10 µM and “++ (between 25% to 100%)”.
Turning to `O=C(Nc1cc2[nH]ccc2cc1F)c1c[nH]c2ccc(F)cc2c1=O` [Compound 254, 6-fluoro-N-(5-fluoro-1H-indol-6-yl)-4-oxo-1H-quinoline-3-carboxamide], the EC50 was less than 10 µM and the “% Activity” value was “++ (between 25% to 100%)”.
`CCc1cc(C(C)(C)C)c(O)cc1NC(=O)c1c[nH]c2ccccc2c1=O` [Compound 659, N-(2-ethyl-5-hydroxy-4-tert-butyl-phenyl)-4-oxo-1H-quinoline-3-carboxamide]: the EC50 is less than 10 µM and the “% Activity” value is listed as “++ (between 25% to 100%)”.
In the same order, the values of `CC(C)(C)c1ccc(NC(=O)c2c[nH]c3ccccc3c2=O)c(Cl)c1` [Compound 362, N-(2-chloro-4-tert-butyl-phenyl)-4-oxo-1H-quinoline-3-carboxamide] are less than 10 µM and “++ (between 25% to 100%)”.
On the same counts, the results for `O=C(Nc1ccccc1-c1ccccc1)c1c[nH]c2ccccc2c1=O` [Compound 461, 4-oxo-N-(2-phenylphenyl)-1H-quinoline-3-carboxamide] are less than 10 µM and “++ (between 25% to 100%)”.
Take `CCc1cc(Br)ccc1NC(=O)c1c[nH]c2ccccc2c1=O` [Compound 263, N-(4-bromo-2-ethyl-phenyl)-4-oxo-1H-quinoline-3-carboxamide]: the EC50 is less than 10 µM and the “% Activity” value is “++ (between 25% to 100%)”.
As to `Cn1ccc2ccc(NC(=O)c3c[nH]c4ccccc4c3=O)cc21` [Compound 169, N-(1-methyl-1H-indol-6-yl)-4-oxo-1H-quinoline-3-carboxamide], the EC50 lay within 10 to 25 µM and the “% Activity” value was “++ (between 25% to 100%)”.
In the case of `CCCCOC(=O)NCC(C)(C)c1ccc(NC(=O)c2c[nH]c3ccccc3c2=O)cc1` [Compound 460, [2-methyl-2-[4-[(4-oxo-1H-quinolin-3-yl)carbonylamino]phenyl]-propyl]aminoformic acid butyl ester], the EC50 is less than 10 µM and the “% Activity” value is listed as “++ (between 25% to 100%)”.
